Data taken from patent publication US8871208B2, “11-β-hydroxysteroid dehydrogenase type 1 (11β-HSD1) inhibitors and uses thereof” (AbbVie Inc., priority 2009, dated 2014).
Where two headings read alike, the source gives them in different places.

Columns and labels:
human 11β-HSD-2 = target: T1, human 11β-HSD-2 (Homo sapiens, UniProt P80365); assay: Human 11β-HSD-2 enzymatic SPA assay; format: biochemical
T1 sequence (P80365 1-405): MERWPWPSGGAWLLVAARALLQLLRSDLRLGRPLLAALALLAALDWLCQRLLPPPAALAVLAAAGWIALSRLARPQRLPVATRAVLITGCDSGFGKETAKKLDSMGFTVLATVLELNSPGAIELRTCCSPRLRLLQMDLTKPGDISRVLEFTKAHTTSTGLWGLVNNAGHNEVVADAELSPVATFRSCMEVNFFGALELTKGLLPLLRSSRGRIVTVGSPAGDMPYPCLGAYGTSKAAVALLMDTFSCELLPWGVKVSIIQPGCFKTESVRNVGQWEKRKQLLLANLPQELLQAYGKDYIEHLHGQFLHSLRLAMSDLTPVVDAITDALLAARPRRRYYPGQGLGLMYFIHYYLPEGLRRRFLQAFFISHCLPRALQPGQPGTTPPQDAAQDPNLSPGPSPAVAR
Protocol: (§1) The ability of test compounds to inhibit human 11β-HSD-1 enzymatic activity in vitro was evaluated in a Scintillation Proximity Assay (SPA). […] The reaction was stopped by adding a non-specific 11β-HSD inhibitor, 18β-glycyrrhetinic acid. The tritiated cortisol was captured by a mixture of an anti-cortisol monoclonal antibody and SPA beads coated with anti-mouse antibodies. The reaction plate was shaken at room temperature and the radioactivity bound to SPA beads was then measured on a β-scintillation counter. The 11β-HSD-1 assay was carried out in 96-well microtiter plates in a total volume of 220 μl. […] In order to drive the reaction in the forward direction, 1 mM G-6-P was also added. Solid compound was dissolved in DMSO to make a 10 mM stock followed by a subsequent 10-fold dilution with 3% DMSO in Tris/EDTA buffer (pH 7.4). 22 μl of titrated compounds was then added in triplicate to the substrate. Reactions were initiated by the addition of 10 μl of 0.1 mg/ml E. coli lysates overexpressing 11β-HSD-1 enzyme. After shaking and incubating plates for 30 minutes at room temperature, reactions were stopped by adding 10 μl of 1 mM glycyrrhetinic acid. The product, tritiated cortisol, was captured by adding 10 μl of 1 μM monoclonal anti-cortisol antibodies and 100 μl SPA beads coated with anti-mouse antibodies. After shaking for 30 minutes, plates were read on a liquid scintillation counter Topcount. Percent inhibition was calculated based on the background and the maximal signal. Wells that contained substrate without compound or enzyme were used as the background, while the wells that contained substrate and enzyme without any compound were considered as maximal signal. Percent of inhibition of each compound was calculated relative to the maximal signal and IC50 curves were generated. This assay was applied to 11β-HSD-2 as well, whereby tritiated cortisol and NAD^+ were used as substrate and cofactor, respectively.

[1] = target: T2, truncated human 11β-HSD-1 enzyme (24-287AA) (Homo sapiens, UniProt P28845); assay: Human 11β-HSD-1 enzymatic SPA assay; format: biochemical
T2 construct: truncated human 11β-HSD-1 enzyme (24-287AA); made in house; host or cells: E. coli (lysate)
Protocol: as §1

T2 sequence (P28845 24-287): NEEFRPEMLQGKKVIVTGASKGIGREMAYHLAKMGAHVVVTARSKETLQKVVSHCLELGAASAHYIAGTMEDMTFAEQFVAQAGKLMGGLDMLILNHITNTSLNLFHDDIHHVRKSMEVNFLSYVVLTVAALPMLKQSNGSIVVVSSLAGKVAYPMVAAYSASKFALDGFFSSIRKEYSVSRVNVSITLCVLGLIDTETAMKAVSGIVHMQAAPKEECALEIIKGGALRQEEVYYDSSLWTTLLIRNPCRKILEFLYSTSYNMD

IC50 (human 11β-HSD-2; human enzyme, SPA)	IC50 ([1]; human enzyme, SPA)	IC50 (human 11β-HSD-2)	IC50 [1]	Structure (SMILES)
> 8750 nM	95 nM			CC1(C)C(=O)N(C2CCCCCC2)CC1COc1ccccc1 (stereo not drawn) [1-cycloheptyl-3,3-dimethyl-4-(phenoxymethyl)pyrrolidin-2-one]
> 10000 nM	73 nM			CN(CC1CN(C2CCCCCC2)C(=O)C1(C)C)c1ccccc1F (stereo not drawn) [1-cycloheptyl-4-{[(2-fluorophenyl)(methyl)amino]methyl}-3,3-dimethylpyrrolidin-2-one]
> 100000 nM	41 nM			CC(C)(Oc1ccc(Cl)cc1)C(=O)NC1C2CC3CC1CC(Cc1nn[nH]n1)(C3)C2 (stereo not drawn) [2-(4-chlorophenoxy)-2-methyl-N-[(E)-5-(2H-tetraazol-5-ylmethyl)-2-adamantyl]propanamide]
> 10000 nM	110 nM			CC(C(=O)N[C@@H]1[C@@H]2C[C@@H]3C[C@H]1C[C@@](O)(C3)C2)N1C[C@@H](C)O[C@@H](C)C1 (stereo partly drawn) [2-[(cis)-2,6-dimethylmorpholin-4-yl]-N-[(E)-5-hydroxy-2-adamantyl]propanamide]
> 10000 nM	92 nM			CC(C(=O)NC1C2CC3CC1CC(O)(C3)C2)N1CCCCCC1 (stereo not drawn) [2-azepan-1-yl-N-[(E)-5-hydroxy-2-adamantyl]propanamide]
18000 nM	48 nM			CC(C)(Oc1ccc(Cl)cc1)C(=O)NC1C2CC3CC1CC(CS(=O)(=O)NCc1ccc(C(=O)O)cc1)(C3)C2 (stereo not drawn) [4-[({[((E)-4-{[2-(4-chlorophenoxy)-2-methylpropanoyl]amino}-1-adamantyl)methyl]sulfonyl}amino)methyl]benzoic acid]
8470 nM	77 nM			CC12CCC(N3CC(COc4ccc(C#N)cn4)C(C)(C)C3=O)(CC1)CC2 (stereo not drawn) [6-{[4,4-dimethyl-1-(4-methylbicyclo[2.2.2]oct-1-yl)-5-oxopyrrolidin-3-yl]methoxy}nicotinonitrile]
		8280 nM	51 nM	CC1(C)C(=O)N(C2C3CCCC2CC(C(N)=O)C3)CC1COc1ccc(C#N)cn1 (stereo not drawn) [9-(4-{[(5-cyanopyridin-2-yl)oxy]methyl}-3,3-dimethyl-2-oxopyrrolidin-1-yl)bicyclo[3.3.1]nonane-3-carboxamide]
> 10000 nM	82 nM			CC(C)(C(=O)N[C@@H]1[C@@H]2C[C@@H]3C[C@H]1C[C@@](C(=O)O)(C3)C2)c1ccccc1 [(E)-4-(2-methyl-2-phenyl-propionylamino)-adamantane-1-carboxylic acid]
1600 nM			41 nM	CC1(C)C(=O)N(C2C3CC4CC2CC(C(N)=O)(C4)C3)CC1COc1ccc(-n2cncn2)cc1 (stereo not drawn) [(E)-4-(3,3-dimethyl-2-oxo-4-{[4-(1H-1,2,4-triazol-1-yl)phenoxy]methyl}pyrrolidin-1-yl) adamantane-1-carboxamide]
5270 nM	29 nM			CC1(C)C(=O)N(C2C3CC4CC2CC(C#N)(C4)C3)CC1COc1ccc(C#N)cn1 (stereo not drawn) [(E)-4-(4-{[(5-cyanopyridin-2-yl)oxy]methyl}-3,3-dimethyl-2-oxopyrrolidin-1-yl) adamantane-1-carbonitrile]
6300 nM	23 nM			CC1(C(=O)N[C@@H]2[C@@H]3C[C@@H]4C[C@H]2C[C@@](C(N)=O)(C4)C3)CCN(Cc2ccccc2Cl)C1=O (stereo partly drawn) [(E)-4-(aminocarbonyl)-2-adamantyl]-1-(2-chlorobenzyl)-3-methyl-2-oxopyrrolidine-3-carboxamide]
10000 nM				CC1(C(=O)N[C@@H]2[C@@H]3C[C@@H]4C[C@H]2C[C@@](C(N)=O)(C4)C3)CCN(Cc2cccc(Cl)c2)C1=O (stereo partly drawn) [(E)-4-(aminocarbonyl)-2-adamantyl]-1-(3-chlorobenzyl)-3-methyl-2-oxopyrrolidine-3-carboxamide]
12000 nM	23 nM			Cc1ccccc1CN1CCC(C)(C(=O)NC2C3CC4CC(C3)C(C(N)=O)C2C4)C1=O (stereo not drawn) [(E)-4-(aminocarbonyl)-2-adamantyl]-3-methyl-1-(2-methylbenzyl)-2-oxopyrrolidine-3-carboxamide]
> 10000 nM	58 nM			CC(C)(C(=O)NC1C2CC3CC1CC(C(=O)O)(C3)C2)N1CCC(F)C1 [(E)-4-({2-[(3R)-3-Fluoropyrrolidin-1-yl]-2-methylpropanoyl}amino)adamantane-1-carboxylic acid]
11000 nM	44 nM			CC(C)(Oc1cccc(C(F)(F)F)c1)C(=O)NC1C2CC3CC1CC(C(N)=O)(C3)C2 (stereo not drawn) [(E)-4-({2-methyl-2-[3-(trifluoromethyl)phenoxy]propanoyl}amino)adamantane-1-carboxamide]
2600 nM	40 nM			CC(C)(Oc1ccc(OC(F)(F)F)cc1)C(=O)NC1C2CC3CC1CC(C(N)=O)(C3)C2 (stereo not drawn) [(E)-4-({2-methyl-2-[4-(trifluoromethoxy)phenoxy]propanoyl}amino)adamantane-1-carboxamide]
> 30000 nM				CC1CN(c2ccccn2)CCN1C(C)(C)C(=O)NC1C2CC3CC1CC(C(=O)O)(C3)C2 [(E)-4-({2-methyl-2-[(2S)-2-methyl-4-pyridin-2-ylpiperazin-1-yl]propanoyl}amino) adamantane-1-carboxylic acid]
90000 nM	89 nM			NC(=O)C12CC3CC(C1)C(NC(=O)C1(Oc4ccc(Cl)cc4)CCC1)C(C3)C2 (stereo not drawn) [(E)-4-({[1-(4-chlorophenoxy)cyclobutyl]carbonyl}amino)adamantane-1-carboxamide]
> 30000 nM	33 nM			NC(=O)[C@]12C[C@@H]3C[C@H](C1)[C@@H](NC(=O)C1(c4ccc(Cl)cc4)CC1)[C@@H](C3)C2 [(E)-4-({[1-(4-chlorophenyl)cyclopropyl]carbonyl}amino)adamantane-1-carboxamide]
1360 nM	39 nM			CC1(C)C(=O)N(C2C3CC4CC2CC(C(N)=O)(C4)C3)CC1COc1ccc(C(F)(F)F)cn1 (stereo not drawn) [(E)-4-[3,3-dimethyl-2-oxo-4-({[5-(trifluoromethyl)pyridin-2-yl]oxy}methyl)pyrrolidin-1-yl]adamantane-1-carboxamide]
> 10000 nM	28 nM			CC(C)(OCc1ccc(C(F)(F)F)cc1)C(=O)N[C@@H]1[C@@H]2C[C@@H]3C[C@H]1C[C@@](C(N)=O)(C3)C2 [(E)-4-[(2-methyl-2-{[4-(trifluoromethyl)benzyl]oxy}propanoyl)amino]adamantane-1-carboxamide]
> 100000 nM	30 nM			CC(C)(Oc1ccc(-n2cccn2)cn1)C(=O)N[C@@H]1[C@@H]2C[C@@H]3C[C@H]1C[C@@](C(N)=O)(C3)C2 [(E)-4-[(2-methyl-2-{[5-(1H-pyrazol-1-yl)pyridin-2-yl]oxy}propanoyl)amino]adamantine-1-carboxamide]
65000 nM	68 nM			CCN(CC)S(=O)(=O)c1cc(Cl)ccc1OC(C)(C)C(=O)NC1C2CC3CC1CC(C(N)=O)(C3)C2 (stereo not drawn) [(E)-4-[(2-{4-chloro-2-[(diethylamino)sulfonyl]phenoxy}-2-methylpropanoyl)amino]adamantane-1-carboxamide]
> 10000 nM	150 nM			NC(=O)OC12CC3CC(C1)C(NC(=O)CN1CCN(c4ccc(C(F)(F)F)cn4)CC1)C(C3)C2 (stereo not drawn) [(E)-4-[({4-[5-(trifluoromethyl)pyridin-2-yl]piperazin-1-yl}acetyl)amino]-1-adamantyl carbamate]
> 10000 nM	43 nM			O=C(O)C12CC3CC(C1)C(NC(=O)C1(c4ccc(Cl)cc4)CCC1)C(C3)C2 (stereo not drawn) [(E)-4-{[1-(4-chloro-phenyl)-cyclobutanecarbonyl]-amino}-adamantane-1-carboxylic acid]
35000 nM	18 nM			CC(C)(Oc1ccc(O)cc1)C(=O)N[C@@H]1[C@@H]2C[C@@H]3C[C@H]1C[C@@](C(N)=O)(C3)C2 [(E)-4-{[2-(4-hydroxyphenoxy)-2-methylpropanoyl]amino}adamantane-1-carboxamide]
44000 nM				CC(C)(C(=O)N[C@@H]1[C@@H]2C[C@@H]3C[C@H]1C[C@@](C(N)=O)(C3)C2)c1ccc(-c2cccnc2)cc1 [(E)-4-{[2-methyl-2-(4-pyridin-3-ylphenyl)propanoyl]amino}adamantane-1-carboxamide]
37000 nM				CC(C)(C)OC(=O)Nc1ccc(OC(C)(C)C(=O)N[C@@H]2[C@@H]3C[C@@H]4C[C@H]2C[C@@](C(N)=O)(C4)C3)cc1 [tert-butyl 4-(2-{[(E)-5-(aminocarbonyl)-2-adamantyl]amino}-1,1-dimethyl-2-oxoethoxy)phenylcarbamate]
